Results published in PMC5768801, “The PII signaling protein from red algae represents an evolutionary link between cyanobacterial and Chloroplastida PII proteins” (Scientific Reports, 2018).
Where “and” joins values, the source holds several entries; their conditions need not be identical. Equal values may be shown once. Entries after “also recorded” stand apart in the source; their conditions may differ. Read-outs that look alike come from different tables or passages of the source.

Legend:
PpPII = PpPII (Porphyra purpurea, UniProt P51254); test: ITC binding of small effector molecules to red algal PpPII
PpPII, sequence (P51254 whole entry): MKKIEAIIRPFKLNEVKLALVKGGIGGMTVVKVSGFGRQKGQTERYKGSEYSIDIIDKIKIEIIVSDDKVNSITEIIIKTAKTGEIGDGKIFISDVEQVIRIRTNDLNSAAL
Method: (§1) To gain additional insights into the ligand binding properties of PpPII in comparison to cyanobacterial and chloroplastid PII proteins, isothermal titration calorimetry (ITC) experiments were performed using highly purified Strep-tagged or His-tagged recombinant PpPII, SyPII, CrPII, and PhyscoPII proteins (Supplementary Fig. S1) with different protein/ligand/ concentrations to determine the best fitting conditions of the binding model. The titration experiments were repeated with different protein preparations to confirm the reproducibility of the results. The raw isothermal data were fitted into one-binding site as well as three-sequential binding sites to define the best fitting model. Fitting using a one binding site model states an average Kd value for all available binding sites and the mean of the stoichiometry of bound ligands.
(§2) The ITC experiments were done using a VP-ITC microcalorimeter (MicroCal, LCC). All details for determination of binding constants for small effector molecules using ITC are fully described in the supplementary information. Heat isotherms of the dilution of the ligand in the cell buffer were collected in a blank run for each experiment in the absence of protein. The binding isotherms were calculated from received data and fitted to one-site and three-sequential binding sites models using the MicroCal ORIGIN software (Northampton) as described. All titrations were performed in duplicates with different purification batches of recombinant PII proteins. The association binding constant (Ka) was generated from the software by de-convolution and curve fitting. For calculation of dissociation constant (Kd), the Ka value was inversed.
(§3) Supplementary Information […]
(§4) Determination of Binding Constants for Small Effector Molecules using Isothermal […]
(§5) The binding of the small effector molecules to the recombinant PII proteins was tested using isothermal titration calarmity (ITC); VP-ITC microcalorimeter (MicroCal). All titrations were performed on 20°C using […] injection syringe with injection 6 µl or 10 µl of the tested ligands for 45 or 29 times, respectively into the cell (1.4 ml) with continuous stirring at 155 rpm. All tested ligands were high grade, prepared freshly in the same buffer of the protein and purchased from Sigma-Aldrich. Heat isotherms for the dilution of the ligand in the cell buffer were collected in a blank run in the absence of protein. The received calorimetric data were analyzed using MicroCal Origin software and fitted into one-site and three-sequential binding sites models, as indicated by the manufacture for calculation of binding isotherms9. For data reproducibility, the titrations were performed in duplicates with different purification batches of recombinant PII proteins. The association binding constant (Ka) was generated from the software by de-convolution and curve fitting. For calculation of dissociation constant (Kd), the Ka value was inversed.
For determination the binding isotherms of red algal PpPII protein, a buffer system composed of […]
used. For determination ATP and ADP binding isotherms upon the binding to PpPII protein, His- […]
against 2 mM ATP or 2 mM ADP. For determination of ATP and ADP binding isotherms in […]
concentration) was titrated against 0.5 mM of ATP or 1 mM ADP, respectively. However, for […]
of 1 mM of ATP or 1 mM ADP. […]

CrPII = test: ITC binding of small effector molecules to green algal CrPII; design: species or system Chlamydomonas reinhardtii
Method: as §1, §2, §3, §4
as §5, with “inversed. […]” for “inversed.”

PhyscoPII = test: ITC binding of small effector molecules to plant-moss PhyscoPII; design: species or system Physcomitrella patens
Method: as §1, §2, §3, §4, §5
5 mM MgCl2, 0.5 mM EDTA, and 10% glycerol (pH 7.6). […]
For determination the binding isotherms of plant-moss PhyscoPII protein, a strep-tagged recombinant protein (5 or 6 µM trimeric concentration) was used in system composed of 20 mM

SyPII = target: T1, SyPII (Synechococcus elongatus, UniProt P0A3F4); conditions: cited from earlier work
T1 construct: Strep-tag; made in house
T1 sequence (P0A3F4 whole entry): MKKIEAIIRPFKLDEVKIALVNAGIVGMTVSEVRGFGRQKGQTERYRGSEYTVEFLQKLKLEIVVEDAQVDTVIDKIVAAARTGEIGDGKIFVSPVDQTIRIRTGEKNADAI

Question: Which results are given for `Nc1ncnc2c1ncn2[C@@H]1O[C@H](COP(=O)(O)OP(=O)(O)O)[C@@H](O)[C@H]1O` [ADP]?
Answer: N, number of calculated binding sites (one-site binding model) (PpPII; in presence 2-OG (1 mM)): 2.7; Kd (PpPII; in presence 2-OG (1 mM), read-out: Average Kd (one-site binding model)): 10.8 ± 2.8 µM; Kd (PpPII; in presence 2-OG (1 mM), read-out: Kd1 (three-sites binding model)): 10.3 ± 10 µM; Kd (PpPII; in presence 2-OG (1 mM), read-out: Kd2 (three-sites binding model)): 43.6 ± 4.7 µM; Kd (PpPII; in presence 2-OG (1 mM), read-out: Kd3 (three-sites binding model)): 125.9 ± 0.9 µM; N, number of calculated binding sites (one-site binding model) (PpPII; titrant alone, per PII trimer): 2.7; Kd (PpPII; titrant alone, read-out: Average Kd (one-site binding model)): ~7.2 µM and 7.2 µM; Kd (PpPII; titrant alone, read-out: Kd1 (three-sites binding model)): 3.4 ± 0.5 µM; Kd (PpPII; titrant alone, read-out: Kd2 (three-sites binding model)): 15.2 ± 0.7 µM; Kd (PpPII; titrant alone, read-out: Kd3 (three-sites binding model)): 132 ± 2.7 µM; Average Kd (one-site binding model) (CrPII; in presence 2-OG (2 mM)): no ADP binding; Kd1 (three-sites binding model) (CrPII; in presence 2-OG (2 mM)): No binding; Kd2 (three-sites binding model) (CrPII; in presence 2-OG (2 mM)): No binding; Kd3 (three-sites binding model) (CrPII; in presence 2-OG (2 mM)): No binding; Average Kd (one-site binding model) (CrPII; titrant alone): unable to notice any binding; also recorded: No binding; Kd1 (three-sites binding model) (CrPII; titrant alone): No binding; Kd2 (three-sites binding model) (CrPII; titrant alone): No binding; Kd3 (three-sites binding model) (CrPII; titrant alone): No binding; Average Kd (one-site binding model) (PhyscoPII; in presence 2-OG): No binding; Kd1 (three-sites binding model) (PhyscoPII; in presence 2-OG): No binding; Kd2 (three-sites binding model) (PhyscoPII; in presence 2-OG): No binding; Kd3 (three-sites binding model) (PhyscoPII; in presence 2-OG): No binding; Average Kd (one-site binding model) (PhyscoPII; titrant alone): unable to detect any binding; also recorded: No binding; Kd1 (three-sites binding model) (PhyscoPII; titrant alone): No binding; Kd2 (three-sites binding model) (PhyscoPII; titrant alone): No binding; Kd3 (three-sites binding model) (PhyscoPII; titrant alone): No binding; Kd (SyPII; read-out: Kd1 (three-sites binding model), titrant alone, given in parentheses for comparison): 10.6 µM; Kd (SyPII; read-out: Kd2 (three-sites binding model), titrant alone, given in parentheses for comparison): 19.3 µM; Kd (SyPII; read-out: Kd3 (three-sites binding model), titrant alone, given in parentheses for comparison): 133 µM
